Measured values from PMC7708446, “^18F-meta-fluorobenzylguanidine (^18F-mFBG) to monitor changes in norepinephrine transporter expression in response to therapeutic intervention in neuroblastoma models” (Scientific Reports, 2020).
Marks after values point to notes of the source that are not given here.

What was measured:
Kelly xenografts = experiment: PET quantification of tumour uptake, Kelly xenografts; format: in vivo, mice
Method: (§1) When the tumours reached approximately 100–200 mm^3, mice were anaesthetised with an isoflurane/O2 mixture (1.5–2.0% v/v) and intravenously injected with either ^18F-mFBG (~ 7.5 MBq) or ^123I-mIBG (~ 20 MBq). Mice were then imaged using an Albira PET/SPECT/CT scanner (Bruker, Coventry, UK). Whole body PET static images were acquired after 1 and 4 h post-injection (p.i.) for 10 min with an energy window of 358 to 664 keV followed by CT acquisition. Acquisition, reconstruction and image analysis were performed as described previously. Following the final scan, the mice were sacrificed and the major organs were excised, weighed and their associated radioactivity was measured using a γ-counter. Biodistribution and image quantification were expressed as a percentage of injected dose per gram of tissue (%ID/g), whereby 1 cm^3 on PET acquisitions were assumed to equal 1 g (n ≥ 3 mice ± SD).

SK-N-BE(2)C xenografts = experiment: Ex vivo biodistribution (γ-counter), mice bearing SK-N-BE(2)C xenografts; format: in vivo; conditions: for ^18F-mFBG biodistribution 4 h p.i., Blood / ^18F-mFBG biodistribution 4 h p.i., Bone / ^18F-mFBG biodistribution 4 h p.i., Brown adipose / ^18F-mFBG biodistribution 4 h p.i., Heart / ^18F-mFBG biodistribution 4 h p.i., Kidney / ^18F-mFBG biodistribution 4 h p.i., Liver / ^18F-mFBG biodistribution 4 h p.i., Lungs / ^18F-mFBG biodistribution 4 h p.i., Muscle / ^18F-mFBG biodistribution 4 h p.i., Pancreas / ^18F-mFBG biodistribution 4 h p.i., Small intestine / ^18F-mFBG biodistribution 4 h p.i., Spleen / ^18F-mFBG biodistribution 4 h p.i., Tumour / ^18F-mFBG biodistribution 4 h p.i., Tumour:blood / ^18F-mFBG biodistribution 4 h p.i., Tumour:muscle: SK-N-BE(2)C
Method: All studies were conducted in compliance with licenses issued under the UK Animals (Scientific Procedures) Act 1986 and approved by the Institute of Cancer Research Animal Welfare and Ethical Review Body (AWERB) according to the United Kingdom National Cancer Research Institute Guidelines for Animal Welfare in Cancer Research (project license PCC916B22, Animals in Science Regulation Unit, Home Office Science, London, UK)[65]. Female Nu(NCr)-Foxn1nu mice (5–7 weeks; 20–22 g) obtained from an in-house breeding colony were used in the studies. Animals were housed in a temperature-controlled facility with 12 h on–12 h off light cycle and provided water and laboratory rodent food ad libitum. Subcutaneous xenografts were generated by injection of either Kelly (5 × 10^6/0.1 mL PBS/Matrigel 30% v/v; BD Matrigel Matrix, BD Bioscience, San Jose, California, US) or SK-N-BE(2)C (1 × 10^6/0.1 mL PBS/Matrigel) into the lower flank. For the treatment studies, AZD2014 stock solution in DMSO was diluted in PEG400 to a final concentration of 2 mg/mL (10% DMSO maximum). When tumours reached ~ 100 mm^3 (calliper measurements using formula: Volume = (Width(2) × Length)/2), mice were treated daily, for a total of either 1, 3 or 7 days, by oral gavage with AZD2014 (20 or 25 mg/kg/day) or vehicle control. Mice were monitored daily for body weight or other adverse effects.
as §1

[1] = SK-N-BE(2)C xenografts, 4 h p.i.

Structure (SMILES): N=C(N)NCc1cccc([18F])c1 [^18F-mFBG, ^18F-meta-fluorobenzylguanidine]
- PET tumour uptake (Kelly xenografts; 1 h p.i., n = 9): 1.10 ± 0.34 %ID/g
- PET tumour uptake (Kelly xenografts; 4 h p.i., n = 5): 0.65 ± 0.29 %ID/g
- Tumour-to-blood ratio (SK-N-BE(2)C xenografts; [1]): 17.69 ± 10.00
- tumour-to-muscle ratio (SK-N-BE(2)C xenografts; [1]): 6.24 ± 3.64
- tumour uptake (SK-N-BE(2)C xenografts; SK-N-BE(2)C xenografts, 4 h p.i., n = 5): 2.96 ± 1.38 %ID/g
- ^18F-mFBG biodistribution 4 h p.i., Blood (SK-N-BE(2)C xenografts; 3 Day AZD2014 (20 mg/kg/day)): 0.16 ± 0.02 %ID/g
- ^18F-mFBG biodistribution 4 h p.i., Bone (SK-N-BE(2)C xenografts; 3 Day AZD2014 (20 mg/kg/day)): 2.42 ± 2.57 %ID/g
- ^18F-mFBG biodistribution 4 h p.i., Brown adipose (SK-N-BE(2)C xenografts; 3 Day AZD2014 (20 mg/kg/day)): 5.32 ± 1.51^b %ID/g
- ^18F-mFBG biodistribution 4 h p.i., Heart (SK-N-BE(2)C xenografts; 3 Day AZD2014 (20 mg/kg/day)): 3.20 ± 0.43^a %ID/g
- ^18F-mFBG biodistribution 4 h p.i., Kidney (SK-N-BE(2)C xenografts; 3 Day AZD2014 (20 mg/kg/day)): 0.89 ± 0.13 %ID/g
- ^18F-mFBG biodistribution 4 h p.i., Liver (SK-N-BE(2)C xenografts; 3 Day AZD2014 (20 mg/kg/day)): 1.74 ± 0.23 %ID/g
- ^18F-mFBG biodistribution 4 h p.i., Lungs (SK-N-BE(2)C xenografts; 3 Day AZD2014 (20 mg/kg/day)): 1.04 ± 0.12 %ID/g
- ^18F-mFBG biodistribution 4 h p.i., Muscle (SK-N-BE(2)C xenografts; 3 Day AZD2014 (20 mg/kg/day)): 0.55 ± 0.09 %ID/g
- ^18F-mFBG biodistribution 4 h p.i., Pancreas (SK-N-BE(2)C xenografts; 3 Day AZD2014 (20 mg/kg/day)): 1.29 ± 0.51 %ID/g
- ^18F-mFBG biodistribution 4 h p.i., Small intestine (SK-N-BE(2)C xenografts; 3 Day AZD2014 (20 mg/kg/day)): 4.88 ± 1.28 %ID/g
- ^18F-mFBG biodistribution 4 h p.i., Spleen (SK-N-BE(2)C xenografts; 3 Day AZD2014 (20 mg/kg/day)): 2.27 ± 1.06 %ID/g
- ^18F-mFBG biodistribution 4 h p.i., Tumour (SK-N-BE(2)C xenografts; 3 Day AZD2014 (20 mg/kg/day)): 3.95 ± 1.53 %ID/g
- ^18F-mFBG biodistribution 4 h p.i., Tumour:blood (SK-N-BE(2)C xenografts; 3 Day AZD2014 (20 mg/kg/day)): 23.76 ± 6.20
- ^18F-mFBG biodistribution 4 h p.i., Tumour:muscle (SK-N-BE(2)C xenografts; 3 Day AZD2014 (20 mg/kg/day)): 7.06 ± 1.79
- ^18F-mFBG biodistribution 4 h p.i., Blood (SK-N-BE(2)C xenografts; 1 day AZD2014 (20 mg/kg/day)): 0.18 ± 0.04 %ID/g
- ^18F-mFBG biodistribution 4 h p.i., Bone (SK-N-BE(2)C xenografts; 1 day AZD2014 (20 mg/kg/day)): 4.55 ± 2.15^c %ID/g
- ^18F-mFBG biodistribution 4 h p.i., Brown adipose (SK-N-BE(2)C xenografts; 1 day AZD2014 (20 mg/kg/day)): 5.47 ± 0.45^b %ID/g
- ^18F-mFBG biodistribution 4 h p.i., Heart (SK-N-BE(2)C xenografts; 1 day AZD2014 (20 mg/kg/day)): 4.34 ± 2.38 %ID/g
- ^18F-mFBG biodistribution 4 h p.i., Kidney (SK-N-BE(2)C xenografts; 1 day AZD2014 (20 mg/kg/day)): 0.98 ± 0.04 %ID/g
- ^18F-mFBG biodistribution 4 h p.i., Liver (SK-N-BE(2)C xenografts; 1 day AZD2014 (20 mg/kg/day)): 1.63 ± 0.69 %ID/g
- ^18F-mFBG biodistribution 4 h p.i., Lungs (SK-N-BE(2)C xenografts; 1 day AZD2014 (20 mg/kg/day)): 1.27 ± 0.68 %ID/g
- ^18F-mFBG biodistribution 4 h p.i., Muscle (SK-N-BE(2)C xenografts; 1 day AZD2014 (20 mg/kg/day)): 0.59 ± 0.16 %ID/g
- ^18F-mFBG biodistribution 4 h p.i., Pancreas (SK-N-BE(2)C xenografts; 1 day AZD2014 (20 mg/kg/day)): 1.09 ± 0.42 %ID/g
- ^18F-mFBG biodistribution 4 h p.i., Small intestine (SK-N-BE(2)C xenografts; 1 day AZD2014 (20 mg/kg/day)): 4.79 ± 1.21 %ID/g
- ^18F-mFBG biodistribution 4 h p.i., Spleen (SK-N-BE(2)C xenografts; 1 day AZD2014 (20 mg/kg/day)): 2.93 ± 0.82 %ID/g
- ^18F-mFBG biodistribution 4 h p.i., Tumour (SK-N-BE(2)C xenografts; 1 day AZD2014 (20 mg/kg/day)): 3.29 ± 1.01 %ID/g
- ^18F-mFBG biodistribution 4 h p.i., Tumour:blood (SK-N-BE(2)C xenografts; 1 day AZD2014 (20 mg/kg/day)): 17.72 ± 2.35
- ^18F-mFBG biodistribution 4 h p.i., Tumour:muscle (SK-N-BE(2)C xenografts; 1 day AZD2014 (20 mg/kg/day)): 5.74 ± 1.77
- ^18F-mFBG biodistribution 4 h p.i., Blood (SK-N-BE(2)C xenografts; 1 day vehicle): 0.18 ± 0.02 %ID/g
- ^18F-mFBG biodistribution 4 h p.i., Bone (SK-N-BE(2)C xenografts; 1 day vehicle): 4.98 ± 2.18^c %ID/g
- ^18F-mFBG biodistribution 4 h p.i., Brown adipose (SK-N-BE(2)C xenografts; 1 day vehicle): 5.14 ± 0.38^b %ID/g
- ^18F-mFBG biodistribution 4 h p.i., Heart (SK-N-BE(2)C xenografts; 1 day vehicle): 4.38 ± 1.68 %ID/g
- ^18F-mFBG biodistribution 4 h p.i., Kidney (SK-N-BE(2)C xenografts; 1 day vehicle): 0.79 ± 0.36 %ID/g
- ^18F-mFBG biodistribution 4 h p.i., Liver (SK-N-BE(2)C xenografts; 1 day vehicle): 1.94 ± 0.30 %ID/g
- ^18F-mFBG biodistribution 4 h p.i., Lungs (SK-N-BE(2)C xenografts; 1 day vehicle): 1.22 ± 0.37 %ID/g
- ^18F-mFBG biodistribution 4 h p.i., Muscle (SK-N-BE(2)C xenografts; 1 day vehicle): 0.60 ± 0.13 %ID/g
- ^18F-mFBG biodistribution 4 h p.i., Pancreas (SK-N-BE(2)C xenografts; 1 day vehicle): 1.01 ± 0.18 %ID/g
- ^18F-mFBG biodistribution 4 h p.i., Small intestine (SK-N-BE(2)C xenografts; 1 day vehicle): 4.50 ± 0.24^b %ID/g
- ^18F-mFBG biodistribution 4 h p.i., Spleen (SK-N-BE(2)C xenografts; 1 day vehicle): 3.19 ± 0.63 %ID/g
- ^18F-mFBG biodistribution 4 h p.i., Tumour (SK-N-BE(2)C xenografts; 1 day vehicle): 2.76 ± 1.14 %ID/g
- ^18F-mFBG biodistribution 4 h p.i., Tumour:blood (SK-N-BE(2)C xenografts; 1 day vehicle): 15.27 ± 5.32
